Blank lines part the entries; values can stand above or below the compound they belong to.
Key:
[1] = system: Salmonella typhimurium tester strain TA98; experiment: Ames test (Bacterial Reverse Mutation Test), TA98; assay type: cell-based
Protocol: (§1) PD152 (compound 2) was tested for genotoxic and cytotoxic side effects by Ames test. The Ames test is a Bacterial Reverse Mutation Test of mutagenicity that utilizes Salmonella typhimurium tester strains TA98, TA100, TA1535, TA1537 and Escherichia coli tester strain WP2 uvrA (pKM101), both in the presence and absence of S9.
(§2) The compound PD152 was tested at 10 concentrations (0.032-1000 μg/plate) in the presence of, or absence of, the hepatic enzyme S9.
(§3) The aniline FABP4/5 inhibitor compound, 2-((2-((2,4-dichloro-5-isopropoxyphenyl)amino)-2-oxoethyl)thio)-2-methylpropanoic acid (compound “B104” as disclosed in WO2023043803A1) also was tested for genotoxic and cytotoxic side effects by Ames test. […]

[2] = system: Salmonella typhimurium tester strain TA100; experiment: Ames test (Bacterial Reverse Mutation Test), TA100; assay type: cell-based
Protocol: as §1, §2
(§4) The aniline FABP4/5 inhibitor compound, 2-((2-((2,4-dichloro-5-isopropoxyphenyl)amino)-2-oxoethyl)thio)-2-methylpropanoic acid (compound “B104” as disclosed in WO2023043803A1) also was tested for genotoxic and cytotoxic side effects by Ames test. B104 was tested using the Salmonella typhimurium tester stains TA98, TA100, TA1535, and TA1537, both in the presence and absence of the hepatic enzyme S9, at 5 concentrations (1.5-64 μg/plate).

[3] = system: Salmonella typhimurium tester strain TA1535; experiment: Ames test (Bacterial Reverse Mutation Test), TA1535; assay type: cell-based
Protocol: as §1, §2, §4

[4] = system: Salmonella typhimurium tester strain TA1537; experiment: Ames test (Bacterial Reverse Mutation Test), TA1537; assay type: cell-based
Protocol: as §1, §2, §3

[5] = system: Salmonella typhimurium tester strains TA98, TA100, TA1535, TA1537 and Escherichia coli tester strain WP2 uvrA (pKM101); experiment: Ames test, overall conclusion for the tested strains; assay type: cell-based; conditions: presence and absence of S9
Protocol: as §1, §2, §4

FABP5 = FABP5 (Homo sapiens (Human), UniProt Q01469); experiment: Fluorescence (ANS) competition binding assay, FABP5; conditions: ANS displacement
Chain of FABP5 (Q01469 whole entry, species assumed): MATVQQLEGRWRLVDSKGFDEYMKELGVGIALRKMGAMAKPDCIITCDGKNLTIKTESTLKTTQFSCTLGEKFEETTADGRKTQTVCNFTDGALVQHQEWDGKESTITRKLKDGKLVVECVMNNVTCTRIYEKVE
Protocol: (§5) This example illustrates a two-step fluorescence binding assay study used to determine the binding affinity of the various inhibitor compounds disclosed herein with the various FABPs: FABP3, FABP4, FABP5 and FABP7. Further secondary screening studies were carried out for compounds with high binding affinities toward the FABPs and based on their ability to activate the nuclear receptors PPARα, PPARγ, or PPARδ.
(§6) Binding assays for FABP3, FABP4, FABP5 and FABP7 were carried out by fluorescence titrations. His-tagged FABPs were bacterially expressed in E. coli, purified using Ni Sepharose beads, and the equilibrium dissociation constants (Kd) that characterize their interactions with different inhibitor compounds were measured by fluorescence competition assays. The method entails two steps as described in e.g., Lin, Q. et al., “Ligand selectivity of the peroxisome proliferator-activated receptor alpha,” Biochemistry 38, 185-190, doi:10.1021/bi9816094 [pii](1999). In the first step, Kd for the association of the protein with the fluorescent fatty acid probe ANS was measured. Protein (2 μM) was titrated with ANS from a concentrated solution in DMSO. Ligand binding was monitored by following the increase in the fluorescence of the ligand upon binding to the protein, and Kd for the association of ANS with the each FABP was computed from titration curves as described in e.g., Norris, A. W. & Li, E., “Fluorometric titration of the CRABPs,” Methods Mol Biol 89, 123-139 (1998)). In the second step, Kds for binding of non-fluorescent ligands were measured by monitoring their ability to displace ANS in the binding pocket of the protein. Each FABP was precomplexed with ANS at 1:1 molar ratio and titrated with the different compounds whose binding was reflected by a decrease in probe fluorescence. Kds were extracted from the EC50 of the competition curve and the measured Kd for ANS.

FABP4 = FABP4 (Homo sapiens (Human), UniProt P15090); experiment: Fluorescence (ANS) competition binding assay, FABP4; conditions: ANS displacement
Chain of FABP4 (P15090 whole entry, species assumed): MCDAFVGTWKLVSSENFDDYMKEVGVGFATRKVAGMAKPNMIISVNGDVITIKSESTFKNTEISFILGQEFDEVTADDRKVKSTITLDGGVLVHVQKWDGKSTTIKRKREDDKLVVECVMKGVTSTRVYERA
Protocol: as §5, §6

FABP3 = FABP3 (Homo sapiens (Human), UniProt P05413); experiment: Fluorescence (ANS) competition binding assay, FABP3; conditions: ANS displacement
Chain of FABP3 (P05413 whole entry, species assumed): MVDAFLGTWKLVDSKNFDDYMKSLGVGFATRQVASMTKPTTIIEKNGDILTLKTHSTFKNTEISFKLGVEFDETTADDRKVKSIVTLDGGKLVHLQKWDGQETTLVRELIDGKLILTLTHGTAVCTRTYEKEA
Protocol: as §5, §6

FABP7 = FABP7 (Homo sapiens (Human), UniProt O15540); experiment: Fluorescence (ANS) competition binding assay, FABP7; conditions: ANS displacement
Chain of FABP7 (O15540 whole entry, species assumed): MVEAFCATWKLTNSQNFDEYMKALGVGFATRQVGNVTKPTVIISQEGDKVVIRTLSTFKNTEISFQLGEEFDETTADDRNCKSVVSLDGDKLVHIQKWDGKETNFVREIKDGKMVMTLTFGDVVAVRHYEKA
Protocol: as §5, §6

PPARα = PPARα (Homo sapiens (Human), UniProt Q07869); experiment: Transcriptional activation assay in COS7 cells, PPARα; assay type: cell-based; conditions: PPRE luciferase reporter, PD151 and PD152 at 10 μM
Chain of PPARα (Q07869 whole entry, species assumed): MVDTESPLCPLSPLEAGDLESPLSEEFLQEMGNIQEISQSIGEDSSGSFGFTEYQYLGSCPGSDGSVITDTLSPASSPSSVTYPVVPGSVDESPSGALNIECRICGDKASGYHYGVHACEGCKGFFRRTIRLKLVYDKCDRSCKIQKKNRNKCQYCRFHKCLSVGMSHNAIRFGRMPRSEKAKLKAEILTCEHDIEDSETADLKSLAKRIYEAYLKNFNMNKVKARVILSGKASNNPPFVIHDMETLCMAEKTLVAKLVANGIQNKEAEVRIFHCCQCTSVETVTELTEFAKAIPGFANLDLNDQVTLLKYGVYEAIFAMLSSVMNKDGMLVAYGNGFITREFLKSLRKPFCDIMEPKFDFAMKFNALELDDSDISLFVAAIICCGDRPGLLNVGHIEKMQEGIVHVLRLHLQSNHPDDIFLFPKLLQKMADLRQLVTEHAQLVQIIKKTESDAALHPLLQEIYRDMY
Protocol: (§7) COS-7 were cultured in 6-well plates and co-transfected with either a luciferase reporter driven by 3 copies of a PPRE and expression vector for either PPARδ, PPARα or PPARγ together with a vector harboring cDNA for β-galactosidase, serving as a transfection control. To test whether FABP4 or FABP5 mediate activation of their cognate receptors PPARγ and PPARδ, respectively, cells were also co-transfected with a plasmid harboring sequence of either FABP4 or FABP5. 18 h post-transfection, cells were placed in a serum-free medium and treated with agonist/compound. 18 h. later, cells were lysed, luciferase activity was assayed (Promega, WI, USA) and corrected for transfection efficiency by the activity of β-galactosidase.
(§8) Transcriptional activation assays were carried out utilizing COS7 cells as described above.

PPARγ = PPARγ (Homo sapiens (Human), UniProt P37231); experiment: Transcriptional activation assay in COS7 cells, PPARγ; assay type: cell-based; conditions: PPRE luciferase reporter, PD151 and PD152 at 10 μM
Chain of PPARγ (P37231 whole entry, species assumed): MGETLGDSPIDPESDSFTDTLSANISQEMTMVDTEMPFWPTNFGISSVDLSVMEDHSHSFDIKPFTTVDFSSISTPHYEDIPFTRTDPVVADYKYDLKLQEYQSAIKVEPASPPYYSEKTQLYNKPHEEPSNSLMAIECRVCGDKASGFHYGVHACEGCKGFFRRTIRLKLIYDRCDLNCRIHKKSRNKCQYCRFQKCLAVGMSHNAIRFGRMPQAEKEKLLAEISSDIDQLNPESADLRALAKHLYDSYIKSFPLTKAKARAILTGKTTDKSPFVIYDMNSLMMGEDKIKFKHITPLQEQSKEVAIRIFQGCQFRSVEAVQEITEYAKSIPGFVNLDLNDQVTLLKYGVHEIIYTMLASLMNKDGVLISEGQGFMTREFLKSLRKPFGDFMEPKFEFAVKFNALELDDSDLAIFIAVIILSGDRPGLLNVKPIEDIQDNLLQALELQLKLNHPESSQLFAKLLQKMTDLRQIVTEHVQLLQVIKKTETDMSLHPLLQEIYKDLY
Protocol: as §7, §8

PPARδ = PPARδ (Homo sapiens (Human), UniProt Q03181); experiment: Transcriptional activation assay in COS7 cells, PPARδ; assay type: cell-based; conditions: PPRE luciferase reporter, PD151 and PD152 at 10 μM
Chain of PPARδ (Q03181 whole entry, species assumed): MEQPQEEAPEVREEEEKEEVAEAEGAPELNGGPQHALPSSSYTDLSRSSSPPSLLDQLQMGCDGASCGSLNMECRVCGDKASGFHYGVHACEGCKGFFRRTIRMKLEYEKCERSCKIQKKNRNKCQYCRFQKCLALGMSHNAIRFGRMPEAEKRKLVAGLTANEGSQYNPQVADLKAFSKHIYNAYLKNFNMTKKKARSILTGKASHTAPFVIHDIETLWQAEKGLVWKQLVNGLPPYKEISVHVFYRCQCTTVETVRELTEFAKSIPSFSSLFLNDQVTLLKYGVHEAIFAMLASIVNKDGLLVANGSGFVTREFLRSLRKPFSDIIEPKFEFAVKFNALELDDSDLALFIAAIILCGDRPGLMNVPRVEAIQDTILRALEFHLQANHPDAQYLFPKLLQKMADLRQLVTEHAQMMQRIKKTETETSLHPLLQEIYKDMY
Protocol: as §7, §8

[6] = TA98, absence of S9, 1.5 μg/well
[7] = TA98, absence of S9, 10 μg/well
[8] = TA98, absence of S9, 25 μg/well
[9] = TA98, absence of S9, 64 μg/well
[10] = TA98, presence of S9, 1.5 μg/well
[11] = TA98, presence of S9, 4 μg/well
[12] = TA98, presence of S9, 10 μg/well
[13] = TA98, presence of S9, 25 μg/well
[14] = TA98, presence of S9, 64 μg/well
[15] = TA100, absence of S9, 1.5 μg/well
[16] = TA100, absence of S9, 4 μg/well
[17] = TA100, absence of S9, 10 μg/well
[18] = TA100, absence of S9, 25 μg/well
[19] = TA100, absence of S9, 64 μg/well
[20] = TA100, presence of S9, 1.5 μg/well
[21] = TA100, presence of S9, 4 μg/well
[22] = TA100, presence of S9, 10 μg/well
[23] = TA100, presence of S9, 25 μg/well
[24] = TA100, presence of S9, 64 μg/well
[25] = TA1535, absence of S9, 1.5 μg/well
[26] = TA1535, absence of S9, 4 μg/well
[27] = TA1535, absence of S9, 10 μg/well
[28] = TA1535, absence of S9, 25 μg/well
[29] = TA1535, absence of S9, 64 μg/well
[30] = TA1535, presence of S9, 1.5 μg/well
[31] = TA1535, presence of S9, 4 μg/well
[32] = TA1535, presence of S9, 10 μg/well
[33] = TA1535, presence of S9, 25 μg/well
[34] = TA1535, presence of S9, 64 μg/well
[35] = TA1537, absence of S9, 1.5 μg/well
[36] = TA1537, absence of S9, 4 μg/well
[37] = TA1537, absence of S9, 10 μg/well
[38] = TA1537, absence of S9, 25 μg/well
[39] = TA1537, absence of S9, 64 μg/well
[40] = TA1537, presence of S9, 1.5 μg/well
[41] = TA1537, presence of S9, 4 μg/well
[42] = TA1537, presence of S9, 10 μg/well
[43] = TA1537, presence of S9, 25 μg/well
[44] = TA1537, presence of S9, 64 μg/well

Compound: CC(C)Oc1cc(NC(=O)CSC(C)(C)C(=O)O)c(Cl)cc1Cl [Compound B104, 2-((2-((2,4-dichloro-5-isopropoxyphenyl)amino)-2-oxoethyl)thio)-2-methylpropanoic acid, reference compound]
Fold increase [1, 6]: 1.26 | Mean number of revertants [1, 6]: 16 | Fold increase ([1]; TA98, absence of S9, 4 μg/well): 0.84 | Mean number of revertants ([1]; TA98, absence of S9, 4 μg/well): 10.67 | Fold increase [1, 7]: 0.97 | Mean number of revertants [1, 7]: 12.33 | Fold increase [1, 8]: 0 | Mean number of revertants [1, 8]: 0.33 | Fold increase [1, 9]: 0 | Mean number of revertants [1, 9]: 0.66 | Fold increase [1, 10]: 1.2 | Mean number of revertants [1, 10]: 20.67 | Fold increase [1, 11]: 2.3 | Mean number of revertants [1, 11]: 39 | Fold increase [1, 12]: 2.88 | Mean number of revertants [1, 12]: 49 | Fold increase [1, 13]: 2.7 | Mean number of revertants [1, 13]: 47.67 | Fold increase [1, 14]: 1.5 | Mean number of revertants [1, 14]: 26 | Fold increase [2, 15]: 0.8 | Mean number of revertants [2, 15]: 52 | Fold increase [2, 16]: 1.05 | Mean number of revertants [2, 16]: 68 | Fold increase [2, 17]: 0.86 | Mean number of revertants [2, 17]: 56 | Fold increase [2, 18]: 0 | Mean number of revertants [2, 18]: 0 | Fold increase [2, 19]: 0 | Mean number of revertants [2, 19]: 0.67 | Fold increase [2, 20]: 3 | Mean number of revertants [2, 20]: 387 | Fold increase [2, 21]: 5.18 | Mean number of revertants [2, 21]: 658 | Fold increase [2, 22]: 6.68 | Mean number of revertants [2, 22]: 849 | Fold increase [2, 23]: 6.55 | Mean number of revertants [2, 23]: 833 | Fold increase [2, 24]: 4.44 | Mean number of revertants [2, 24]: 564.5 | Fold increase [3, 25]: 1.20 | Mean number of revertants [3, 25]: 4 | Fold increase [3, 26]: 2.20 | Mean number of revertants [3, 26]: 7.33 | Fold increase [3, 27]: 1.40 | Mean number of revertants [3, 27]: 4.67 | Fold increase [3, 28]: 0.20 | Mean number of revertants [3, 28]: 0.67 | Fold increase [3, 29]: 0 | Mean number of revertants [3, 29]: 0 | Fold increase [3, 30]: 0.89 | Mean number of revertants [3, 30]: 5.67 | Fold increase [3, 31]: 1 | Mean number of revertants [3, 31]: 6.33 | Fold increase [3, 32]: 1.06 | Mean number of revertants [3, 32]: 6.67 | Fold increase [3, 33]: 1.68 | Mean number of revertants [3, 33]: 10.67 | Fold increase [3, 34]: 1 | Mean number of revertants [3, 34]: 6.33 | Fold increase [4, 35]: 0.43 | Mean number of revertants [4, 35]: 2.0 | Fold increase [4, 36]: 0.32 | Mean number of revertants [4, 36]: 1.5 | Fold increase [4, 37]: 0.21 | Mean number of revertants [4, 37]: 1.0 | Fold increase [4, 38]: 0 | Mean number of revertants [4, 38]: 0 | Fold increase [4, 39]: 0 | Mean number of revertants [4, 39]: 0 | Fold increase [4, 40]: 1.71 | Mean number of revertants [4, 40]: 4.0 | Fold increase [4, 41]: 2.36 | Mean number of revertants [4, 41]: 5.5 | Fold increase [4, 42]: 1.29 | Mean number of revertants [4, 42]: 3.0 | Fold increase [4, 43]: 1.07 | Mean number of revertants [4, 43]: 2.5 | Fold increase [4, 44]: 2.14 | Mean number of revertants [4, 44]: 5.0 | Cytotoxicity to the tested strains [5]: some level of cytotoxicity | Mutagenicity in the Ames test [5]: positive mutagenic responses

Kd (FABP5): 141 nM | Kd (FABP4): 72 nM | Kd (FABP3): 125 nM | Kd (FABP7): 1000 nM | Activation of transcription by PPARα (PPARα): None of these tested compounds activated | Activation of transcription by PPARγ (PPARγ): None of these tested compounds activated | Activation of transcription by PPARδ (PPARδ): None of these tested compounds activated
Compound: CC(C)Oc1ccc(Cl)c(NC(=O)CSCC(=O)O)n1 [PD152.2, 2-((2-((3-chloro-6-isopropoxypyridin-2-yl)amino)-2-oxoethyl)thio)acetic acid]

From patent US20250325529A1, “INHIBITORS OF FATTY ACID BINDING PROTEINS (FABPs), METHODS OF USE AND METHODS OF MAKING” (Celloram, inc., priority 2024, published 2025)
